US20050002859A1, “COX-2-targeted imaging agents” (Vanderbilt University, priority 2003, published 2005)

Tests used:
COX-1 = biological target: T1, COX-1 (Ovis aries, UniProt P05979); assay: Inhibition of COX-1 by NSAID derivatives (species not stated); assay type: biochemical
T1 sequence (P05979 25-600): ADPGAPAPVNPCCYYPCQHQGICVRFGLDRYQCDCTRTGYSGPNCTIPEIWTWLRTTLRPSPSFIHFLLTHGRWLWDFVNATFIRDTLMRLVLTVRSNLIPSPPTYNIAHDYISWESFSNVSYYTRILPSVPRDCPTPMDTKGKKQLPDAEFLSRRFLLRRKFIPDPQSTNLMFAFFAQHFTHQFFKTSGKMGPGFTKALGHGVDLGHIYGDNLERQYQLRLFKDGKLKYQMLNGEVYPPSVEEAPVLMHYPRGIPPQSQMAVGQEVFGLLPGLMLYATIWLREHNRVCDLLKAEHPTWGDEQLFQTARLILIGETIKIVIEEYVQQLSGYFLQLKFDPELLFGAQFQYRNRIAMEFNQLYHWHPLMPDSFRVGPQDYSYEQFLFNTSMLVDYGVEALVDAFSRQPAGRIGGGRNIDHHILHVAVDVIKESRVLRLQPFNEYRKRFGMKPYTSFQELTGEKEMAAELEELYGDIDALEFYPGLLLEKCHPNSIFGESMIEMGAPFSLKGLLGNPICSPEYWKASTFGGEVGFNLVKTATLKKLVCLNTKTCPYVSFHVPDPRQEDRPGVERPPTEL
Method: (§1) While the TLC assay described above provides considerable information, it is labor-intensive for screening large numbers of candidate NSAID derivatives. Accordingly, as an alternative, a simplified assay can be used. Incubation conditions can be essentially as described above, except all candidate derivatives are first screened at a concentration of 1 mM with a preincubation time of 30 minutes. The substrate need not be radiolabeled, and the reaction can be stopped by the addition of 2 μL of formic acid. Product formation can be quantitated by enzyme-linked immunosorbent assay (ELISA) using commercially available kits. […] Other in vitro assay methods for screening NSAID derivatives for activity (e.g., selectivity for the COX-2 enzyme) can also be used by the skilled artisan.

[1] = test system: rat carageenan footpad edema; assay: Rat carageenan footpad edema model; assay type: in vivo
Method: The first is the rat carageenan footpad model. Maximal edema is obtained in this model 3 hours after carageenan injection.

[2] = rat, in vivo
[3] = Metabolism by rat liver microsomes; assay type: in vitro ADME; conditions: 0.125 mg/mL protein
Method: Preliminary metabolic studies were conducted using isolated liver microsome preparations.

COX-2 = biological target: T2, COX-2 (Homo sapiens, UniProt P35354); assay: Inhibition of purified COX-2 by NSAID derivatives (species not stated); assay type: biochemical; conditions: purified enzyme
T2 sequence (P35354 18-604): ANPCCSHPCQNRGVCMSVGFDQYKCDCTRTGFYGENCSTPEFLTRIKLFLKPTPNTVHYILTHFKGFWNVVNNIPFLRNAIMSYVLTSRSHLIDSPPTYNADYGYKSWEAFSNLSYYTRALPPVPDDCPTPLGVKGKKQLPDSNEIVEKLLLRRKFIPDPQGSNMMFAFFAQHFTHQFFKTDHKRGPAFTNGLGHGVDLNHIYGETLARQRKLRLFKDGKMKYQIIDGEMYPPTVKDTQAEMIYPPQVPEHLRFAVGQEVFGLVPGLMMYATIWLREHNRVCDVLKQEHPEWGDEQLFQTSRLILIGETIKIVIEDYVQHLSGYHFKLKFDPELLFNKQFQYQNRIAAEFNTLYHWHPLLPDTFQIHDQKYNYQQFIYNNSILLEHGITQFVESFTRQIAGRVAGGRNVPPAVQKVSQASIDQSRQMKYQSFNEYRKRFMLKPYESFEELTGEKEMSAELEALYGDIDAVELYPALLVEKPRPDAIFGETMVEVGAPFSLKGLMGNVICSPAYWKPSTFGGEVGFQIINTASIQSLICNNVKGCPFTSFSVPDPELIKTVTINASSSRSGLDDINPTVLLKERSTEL
Method: as §1

[4] = biological target: T3, COX-2 activity in RAW 264.7 murine macrophage cell line (Mus musculus, UniProt Q05769); assay: Inhibition of COX-2 activity (PGD2 synthesis) in activated RAW264.7 macrophages; assay type: cell-based; conditions: read-out: IC50 for inhibition of COX-2 activity in RAW 264.7 macrophages
T3 construct: The macrophages were exposed to lipopolysaccharide and γ-interferon to induce COX-2; endogenous in cells
T3 sequence (Q05769 18-604): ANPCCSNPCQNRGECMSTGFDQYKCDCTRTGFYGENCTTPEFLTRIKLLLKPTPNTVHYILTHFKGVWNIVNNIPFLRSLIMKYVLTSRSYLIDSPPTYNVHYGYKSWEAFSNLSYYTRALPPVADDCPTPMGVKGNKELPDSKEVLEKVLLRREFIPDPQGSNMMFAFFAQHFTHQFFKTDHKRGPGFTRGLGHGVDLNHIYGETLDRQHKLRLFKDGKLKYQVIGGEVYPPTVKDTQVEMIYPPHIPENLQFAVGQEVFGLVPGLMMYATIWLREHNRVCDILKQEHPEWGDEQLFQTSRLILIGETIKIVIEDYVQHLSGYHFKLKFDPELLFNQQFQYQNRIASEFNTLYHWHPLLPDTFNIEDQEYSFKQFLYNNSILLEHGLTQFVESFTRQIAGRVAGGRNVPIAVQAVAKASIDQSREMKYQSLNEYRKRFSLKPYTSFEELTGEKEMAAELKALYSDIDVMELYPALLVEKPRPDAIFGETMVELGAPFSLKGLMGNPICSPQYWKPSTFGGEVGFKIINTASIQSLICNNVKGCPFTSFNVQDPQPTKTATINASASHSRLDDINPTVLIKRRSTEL
Text: Thus, NSAID derivatives that are identified as potentially useful in the methods described herein can be further tested using, for example, the RAW264.7 murine macrophage cell line. These cells are readily available (for example, from the American Type Culture Collection, Manassas, Va., United States of America) and are easily cultured in large numbers. They normally express low levels of COX-1 and very low to undetectable levels of COX-2. Upon exposure to bacterial lipopolysaccharide (LPS), however, COX-2 levels increase dramatically over the ensuing 24 hour period, and the cells produce PGD2 and PGE2 from endogenous arachidonic acid stores (generally, ˜1 nmol/10^7 cells total PG formation). After LPS exposure, the addition of exogenous arachidonic acid results in the formation of additional PGD2 and PGE2 as a result of metabolism by the newly synthesized COX-2.
This system provides a number of approaches for testing the inhibitory potency of COX-2-selective ligands (e.g., inhibitors). In general, following LPS activation, cells can be treated for 30 minutes with the desired concentrations of candidate derivative(s) in DMSO. ^14C-arachidonic acid can be added, and the cells can be incubated for 15 minutes at 37° C. Product formation can be assessed following extraction and TLC separation of the culture medium. Alternatively, the effects of candidate derivatives on PG synthesis from endogenous arachidonic acid can be assessed by incubating cells with desired concentrations of candidate derivatives 30 minutes prior to LPS exposure. Following a 24 hour incubation, medium can be collected and extracted, and the amount of PGD2 and/or PGE2 can be assayed by gas chromatography-mass spectrometry, liquid chromatography-mass spectrometry, or ELISA.
Inhibition of COX-2 Activity in Activated RAW264.7. Protocols for COX-2 inhibition in RAW264.7 cells have been previously described (Kalgutkar et al., 1998b). Briefly, cells (6.2×10^6 cells/T25 flask) were activated with lipopolysaccharide (1 μg/mL) and γ-interferon (10 U/mL) in serum-free DMEM for 7 hours and then treated with inhibitor (0-2 μM) for 30 minutes at 37° C. Exogenous arachidonate metabolism was determined by adding [1-^14C]-arachidonate acid (20 μM) for 15 minutes at 37° C. IC50 values are the average of two independent determinations.
The macrophages were exposed to lipopolysaccharide and γ-interferon to induce COX-2 and then treated with several concentrations of Compound 355.

[5] = biological target: T4, COX-1 activity in uninduced macrophages (Mus musculus, UniProt P22437); assay: Inhibition of COX-1 activity in uninduced macrophages; assay type: cell-based, murine
T4 construct: endogenous in cells
T4 sequence (P22437 27-602): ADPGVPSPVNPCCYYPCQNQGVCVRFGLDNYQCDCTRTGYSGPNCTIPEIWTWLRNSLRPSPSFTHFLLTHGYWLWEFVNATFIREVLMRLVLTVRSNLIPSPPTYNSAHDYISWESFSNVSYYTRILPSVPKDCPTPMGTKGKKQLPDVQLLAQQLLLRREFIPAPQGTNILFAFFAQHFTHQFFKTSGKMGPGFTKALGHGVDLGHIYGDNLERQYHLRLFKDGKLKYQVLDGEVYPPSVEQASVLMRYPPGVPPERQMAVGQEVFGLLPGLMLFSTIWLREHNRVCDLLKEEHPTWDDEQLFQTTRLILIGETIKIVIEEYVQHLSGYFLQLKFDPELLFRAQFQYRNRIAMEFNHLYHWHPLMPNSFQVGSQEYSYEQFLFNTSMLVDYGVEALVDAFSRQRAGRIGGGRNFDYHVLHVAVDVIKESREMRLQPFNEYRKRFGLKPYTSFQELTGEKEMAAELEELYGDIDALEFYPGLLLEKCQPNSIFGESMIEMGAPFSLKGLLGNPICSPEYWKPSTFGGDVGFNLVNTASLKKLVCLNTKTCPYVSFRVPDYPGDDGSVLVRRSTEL

Structure (SMILES) | IC50 (COX-1) [µM] | anti-inflammatory activity in rat footpad edema assay ([1]; following oral installation) | ED50 ([1]; rat carageenan footpad model (Example 14)) [mg/kg] | clearance half-life [2] [h] | half-life in plasma ([2]; po) [h] | oral bioavailability ([2]; po) [%] | half-life, rat liver microsomes [3] [h] | IC50 (COX-2) [µM] | IC50 [4] [µM] | concentration up to which COX-1 activity is not inhibited [5] [µM]
COc1ccc2c(c1)c(CC(=O)Nc1ccc(F)cc1)c(C)n2C(=O)c1ccc(Cl)cc1 [Compound 18, p-fluorophenyl derivative of indomethacin amide] | > 66 | anti-inflammatory activity | 0.25 | 4 | 4 | 30 | 1.67 |  |  | 
CCCCC#CCSc1ccccc1OC(=O)CF [F-APHS] |  |  |  |  |  |  |  | 4 | 2.8 | > 32
